Consider 30 compounds from ChEMBL document CHEMBL3102695, “New melatonin (MT1/MT2) ligands: design and synthesis of (8,9-dihydro-7H-furo[3,2-f]chromen-1-yl) derivatives” (Bioorg Med Chem, 2014).

A short description of experiment [1]: Displacement of 2-[I]iodomelatonin from human melatonin MT1 receptor after 120 mins.
Experiment [2] in a line: Displacement of 2-[I]iodomelatonin from human melatonin MT2 receptor after 120 mins.
A short description of experiment [3]: Intrinsic activity at human melatonin MT1 receptor expressed in CHO cells assessed as [35S]GTPgammaS binding after 1 hr. Format: functional, cell-based. (GTPγS resists hydrolysis and so accumulates on activated G proteins.)
A short description of experiment [4]: Intrinsic activity at human melatonin MT1 receptor expressed in CHO cells assessed as [35S]GTPgammaS binding after 1 hr relative to melatonin. Type of experiment: functional.
The nature of experiment [5]: Intrinsic activity at human melatonin MT2 receptor expressed in CHO cells assessed as [35S]GTPgammaS binding after 1 hr. Type of experiment: functional, cell-based.
A short description of experiment [6]: Intrinsic activity at human melatonin MT2 receptor expressed in CHO cells assessed as [35S]GTPgammaS binding after 1 hr relative to melatonin. Type of experiment: functional.
Experiment [7] deals with Mus musculus. Description: Anxiolytic activity in C3H/he mouse assessed as increase in time spent in light box at 20 to 40 mg/kg, po by light/dark box test. Type of experiment: functional, organism-based.
The subject of experiment [8] is Mus musculus. Description: Anxiolytic activity in C3H/he mouse assessed as increase in number of transitions at 20 to 40 mg/kg, po by light/dark box test. Type of experiment: functional, organism-based.
Experiment [9] concerns Mus musculus. Description: Increase of neophobia in C3H/he mouse assessed as time spent in unfamiliar compartment at 1 to 10 mg/kg, po. Type of experiment: functional, organism-based.
Another experiment concerns Rattus norvegicus. Description: Decrease of anticipation of social defeat in rat assessed as reduction of duration of immobility and vocalization at 40 mg/kg, ip. More on the design: dose 40 mg/kg. Format: functional, organism-based.
The test system of experiment [10] is Mus musculus. Description: Increase of neophobia in C3H/he mouse assessed as time spent in unfamiliar compartment at 1 to 25 mg/kg, po. Type of experiment: functional, organism-based.
The subject of experiment [11] is Mus musculus. The experiment is described as follows: Increase of resynchronization of activity rhythm in C3H/he mouse at 20 mg/kg, ip. Format: functional. The note with it: route intraperitoneal.
Experiment [12] concerns Mus musculus. Description: Anxiolytic activity in C3H/he mouse assessed as increase in number of transitions at 10 to 40 mg/kg, po by light/dark box test. Format: functional, organism-based.
The subject of experiment [13] is Mus musculus. Description: Anxiolytic activity in C3H/he mouse assessed as increase in time spent in light box at 10 to 40 mg/kg, po by light/dark box test. Type of experiment: functional, organism-based.

pEC50, pKi: −log10 of the molar value. Active and inactive are the calls of the source. No cut-off for these calls is given here.

By pKi is commonly meant the negative decadic logarithm of the Ki, by convention in mol/L. For `CC(=O)NCCc1coc2cc(C(=O)c3cccc(C(F)(F)F)c3)c3c(c12)CCCO3`, the figures for the negative logarithm of the Ki (pKi) in [1] and in experiment [2] were 7.47 and 7.54, respectively.

For the compound `COc1ccc(C(=O)c2cc3occ(CCNC(C)=O)c3c3c2OCCC3)cc1`, the pKi in experiment [1] is 5.27; in [2], 5.41.

As usually defined, the pEC50 is the EC50 on a negative log10 scale, so that one unit is a factor of ten. The term Emax denotes the maximal effect, on the per cent scale that the assay sets. Regarding `COc1ccc2occ(CCNC(C)=O)c2c1`, the negative-log EC50 (pEC50) in experiment [3] was 8.26; in experiment [5], 9.15. In experiment [1], this compound had a pKi of 9.80. Moreover, the maximal response (Emax) came out at 118% in experiment [4] and 101% in experiment [6].

For the compound `CC(=O)NCCc1c(-c2cccc(O)c2)oc2ccc3c(c12)CCCO3`, the pEC50 in experiment [3] was 8.34; in experiment [5], 9.68. Also, the negative logarithm of the Ki (pKi) in [1] was 9.06; in [2], 9.68. The maximum response (Emax) was 46% in experiment [4] and 93% in [6].

With `CC(=O)N(C)CCc1coc2ccc3c(c12)CCCO3`, the pEC50 in experiment [3] and in experiment [5] was < 5.00 in each case. The pKi was 7.85 in [1] and 7.89 in experiment [2].

`COc1ccccc1C(=O)c1cc2occ(CCNC(C)=O)c2c2c1OCCC2`: in [1], the negative logarithm of the Ki (pKi) is 6.08.

In the case of `C/C=C/C(=O)NCCc1coc2ccc3c(c12)CCCO3`, the negative-log EC50 (pEC50) in experiment [3] was 7.21; in experiment [5] it was 7.85. Further, the negative logarithm of the Ki (pKi) is 8.89 in [1] and 8.59 in experiment [2]. In addition, the maximal effect (Emax) was found to be 92% in [4] and 65% in [6].

With `C=CCc1oc2ccc3c(c2c1CCNC(C)=O)CCCO3`, the negative-log EC50 (pEC50) is 9.82 in experiment [3] and 10.10 in experiment [5]. In addition, the negative-log Ki (pKi) in experiment [1] is 10.52; in [2] it was 9.92. Besides, the Emax in experiment [4] was determined as 104%; in [6], 109%.

As to `CC(=O)NCCc1c(-c2cccc(CO)c2)oc2ccc3c(c12)CCCO3`, the values for the negative-log EC50 (pEC50) in experiment [3] and in experiment [5] were 8.07 and 9.52, respectively. Also, the negative logarithm of the Ki (pKi) in experiment [1] is 8.66; in [2], 9.17. The maximal effect (Emax) in experiment [4] was determined as 32%; in experiment [6], 67%.

Consider `C=CCC(=O)NCCc1coc2ccc3c(c12)CCCO3`, for which the pEC50 in [3] was 8.60; in experiment [5], 8.82. Further, the pKi in [1] was 10.15; in experiment [2] it was 10.10. Besides, the Emax in experiment [4] was determined as 68%; in [6], 57%.

In the case of `COc1cccc(-c2oc3ccc4c(c3c2CCNC(C)=O)CCCO4)c1`, the pEC50 in [3] is 8.74; in experiment [5], 9.70. For the same compound, the values for the negative-log Ki (pKi) in experiment [1] and in experiment [2] were 9.48 and 9.52, respectively. The values for the Emax in [4] and in experiment [6] were 30% and 68%, respectively.

Regarding `O=C(CI)NCCc1coc2ccc3c(c12)CCCO3`, the results for the pEC50 in experiment [3] and in experiment [5] were 9.70 and 10.00, respectively. The results for the negative-log Ki (pKi) in experiment [1] and in experiment [2] were 10.15 and 10.10, respectively. Also, the Emax came to 121% in experiment [4] and 78% in [6].

With `COc1ccc(C(=O)c2oc3ccc4c(c3c2CCNC(C)=O)CCCO4)cc1`, the negative logarithm of the Ki (pKi) is 6.98 in experiment [1] and 8.57 in experiment [2].

On to `COc1cccc(C(=O)c2oc3ccc4c(c3c2CCNC(C)=O)CCCO4)c1`, for which the pKi is 6.89 in experiment [1] and 9.08 in experiment [2].

On to `CCCC(=O)c1oc2ccc3c(c2c1CCNC(C)=O)CCCO3`, for which the pKi in experiment [1] is 9.01; in experiment [2], 10.00.

As to `COc1cccc(C(=O)c2cc3occ(CCNC(C)=O)c3c3c2OCCC3)c1`, the pEC50 in experiment [3] is 6.34; in [5], 6.83. In addition, the negative logarithm of the Ki (pKi) in [1] is 7.46; in [2] it was 7.10. For the same compound, the Emax was found to be 56% in experiment [4] and 58% in experiment [6].

As to `S=C(NCCc1coc2ccc3c(c12)CCCO3)NC1CC1`, the pEC50 in [3] is 6.84; in experiment [5] it was 7.42. Further, the negative-log Ki (pKi) in experiment [1] is 8.25; in experiment [2], 8.13. Besides, the Emax in experiment [4] was found to be 42%; in [6], 46%.

Turning to `CC(=O)NCCc1coc2cc(C(=O)c3ccccc3)c3c(c12)CCCO3`, the negative logarithm of the Ki (pKi) in [1] was 7.36; in experiment [2], 7.40.

Consider `C=Cc1oc2ccc3c(c2c1CCNC(C)=O)CCCO3`, for which the negative-log EC50 (pEC50) is 10.10 in experiment [3] and 9.68 in experiment [5]. Besides, the pKi is 10.30 in experiment [1] and 9.70 in experiment [2]. Also, the figures for the maximal effect (Emax) in experiment [4] and in experiment [6] were 113% and 120%, respectively.

For `CC(=O)NCCc1c(C(=O)c2cccc(C(F)(F)F)c2)oc2ccc3c(c12)CCCO3`, the negative-log EC50 (pEC50) was < 5.00 in experiment [3] and 7.80 in [5]. Further, the negative logarithm of the Ki (pKi) in [1] is 6.49; in experiment [2], 8.59. Further, the Emax in [6] turned out to be 44%.

In the case of `CCCCNC(=S)NCCc1coc2ccc3c(c12)CCCO3`, the pKi was 7.64 in [1] and 7.34 in experiment [2].

`CC(=O)NCCc1coc2cc(Cc3cccc(C(F)(F)F)c3)c3c(c12)CCCO3`: the pKi in [1] is 8.05; in [2] it was 7.89.

Consider `COc1ccc2[nH]cc(CCNC(C)=O)c2c1` [MELATONIN], for which the pEC50 is 8.77 in [3] and 9.40 in [5]. Moreover, the outcome with Mus musculus [7], in the experiment with Mus musculus [8] and in the experiment with Mus musculus [9] was Active. In experiment [1], this compound gave a pKi of 9.64.

Consider `C=CC(=O)NCCc1coc2ccc3c(c12)CCCO3`, for which the pEC50 was 7.89 in experiment [3] and 7.29 in experiment [5]. Further, the negative logarithm of the Ki (pKi) in experiment [1] is 9.96; in experiment [2], 9.42. For the same compound, the maximal effect (Emax) in experiment [4] worked out at 80%; in [6], 74%.

Regarding `CCCCNC(=O)NCCc1coc2ccc3c(c12)CCCO3`, the figures for the negative logarithm of the Ki (pKi) in experiment [1] and in experiment [2] were 7.30 and 7.64, respectively.

On to `CC(=O)NCCc1coc2ccc3c(c12)CCCO3`, for which the pEC50 is 9.10 in experiment [3] and 9.72 in experiment [5]. In addition, the result in the experiment with Rattus norvegicus, with Mus musculus [10], in the experiment on Mus musculus [12] and in the experiment on Mus musculus [13] was Active. Also, in the experiment with Mus musculus [11], the Activity is reported as 30%. Also, the pKi is 9.51 in experiment [1] and 9.23 in experiment [2]. The Emax was found to be 98% in [4] and 68% in [6].

Regarding `COc1ccccc1C(=O)c1oc2ccc3c(c2c1CCNC(C)=O)CCCO3`, the pKi in experiment [1] is 7.28; in experiment [2], 7.89.

Regarding `CCCNC(=S)NCCc1coc2ccc3c(c12)CCCO3`, the pKi was 8.27 in experiment [1] and 8.36 in [2].

Take `CC(=O)NCCc1c(-c2ccccc2)oc2ccc3c(c12)CCCO3`: the negative logarithm of the EC50 (pEC50) in experiment [3] is 9.92; in experiment [5] it was 10.15. The negative-log Ki (pKi) in experiment [1] is 10.40; in experiment [2], 9.85. The maximal response (Emax) in experiment [4] came to 107%; in experiment [6], 104%.

With `CCCNC(=O)NCCc1coc2ccc3c(c12)CCCO3`, the pKi was 8.89 in experiment [1] and 9.13 in [2].
